Tested on: control human primary myoblasts
Test: Expression microarray of primary myoblasts transduced with lentivirus carrying DUX4-fl, DUX4-s or GFP
Protocol: Primary human myoblasts were collected and cultured as previously described (Snider et al., 2010). Primary myoblasts were maintained at or below 70% confluency for proliferation. For differentiation, cells were allowed to reach 95-100% confluency in growth medium. Once confluency was reached, the cells were changed to differentiation medium (F10 media supplemented with 1% horse serum, 10 μg/mL insulin, and 10 μg/mL transferrin, penicillin/streptomycin) and maintained for 4 days. Human RD cells were grown in DMEM in 10% bovine calf serum (Hyclone) and penicillin/streptomycin. The primary myoblasts were transduced with lentivirus carrying DUX-fl, DUX4- or GFP (MOI=15).
Expression microarrays were performed on the transduced cells at 24 hours after transduction as follows. […] Samples were analyzed by Illumina Human Whole Genome microarrays. Probe intensities were corrected, normalized, and summarized by the Lumi package of Bioconductor (Du et al., 2008). Differentially expressed genes were identified by the LIMMA package of Bioconductor (Wettenhall and Smyth, 2004). Gene set enrichment analysis (GSEA) was performed using the Bioconductor GOstats package (Falcon and Gentleman, 2007).

DUX4-fl: full-length DUX4 protein (SEQ ID NO:110), expressed from lentiviral or pCS2 vectors or in vitro translated
fc of DENND5A (expression array) (Refseq NM_015213.2): −1.037
fc of FEM1B (expression array) (Refseq NM_015322.3): −0.5708
fc of PANX1 (expression array) (Refseq NM_015368.3): −0.114
fc of AASDHPPT (expression array) (Refseq NM_015423.2): −0.238
MTHFD1L fc (Refseq NM_015440.3): −1.173
C2orf32 fc (Refseq NM_015463.1): −1.1
PVRL3 expression fc (Refseq NM_015480.1): 2.223
NGDN expression fc (Refseq NM_015514.1): 2.058
fc of RRM2B (expression array) (Refseq NM_015713.3): −1.01
MBD2 expression fc (Refseq NM_015832.3): 1.818
fc of MBTPS2 (expression array) (Refseq NM_015884.1): −0.6539
ARS2 expression fc (Refseq NM_015908.4): 2.602
GSTK1 fc (Refseq NM_015917.1): −1.079
NOP58 expression fc (Refseq NM_015934.3): 1.887
CRLF3 expression fc (Refseq NM_015986.2): 1.912
fc of TTC15 (expression array) (Refseq NM_016030.5): −1.015
ISOC1 expression fc (Refseq NM_016048.1): 2.003
MED31 expression fc (Refseq NM_016060.2): 2.055
fc of TRPV2 (expression array) (Refseq NM_016113.3): −1.02
CERCAM fc (Refseq NM_016174.3): −1.121
DBR1 expression fc (Refseq NM_016216.2): 3.379
POLR3K expression fc (Refseq NM_016310.2): 1.95
HERC5 expression fc (Refseq NM_016323.2, cultured human skeletal muscle): −3.202
fc of CENPF (expression array) (Refseq NM_016343.3): −0.4122
CWC15 expression fc (Refseq NM_016403.3): 2.643
fc of TMEM9 (expression array) (Refseq NM_016456.2): −1.008
RAB6B expression fc (Refseq NM_016577.3): 3.17
SLC15A3 expression fc (Refseq NM_016582.1, cultured human skeletal muscle): −3.754
FKBP11 fc (Refseq NM_016594.1): −1.125
ARMCX1 fc (Refseq NM_016608.1): −1.116
C8orf55 fc (Refseq NM_016647.2): −1.082
HOXC13 fc (Refseq NM_017410.2): −1.107
USP18 expression fc (Refseq NM_017414.3, cultured human skeletal muscle): −2.497
PARP14 expression fc (Refseq NM_017554.1, cultured human skeletal muscle): −2.825
fc of SLC43A3 (expression array) (Refseq NM_017611.2): −1.026
NOTCH1 fc (Refseq NM_017617.3): −1.08
KIF21A expression fc (Refseq NM_017641.2): 1.837
fc of AHI1 (expression array) (Refseq NM_017651.3): −0.5927
SAMD9 expression fc (Refseq NM_017654.2, cultured human skeletal muscle): −2.863
FAM46C expression fc (Refseq NM_017709.3): 2.389
RETSAT expression fc (Refseq NM_017750.2, cultured human skeletal muscle): −1.929
LYAR expression fc (Refseq NM_017816.1): 1.977
ZSCAN2 expression fc (Refseq NM_017894.4): 2.151
HERC6 expression fc (Refseq NM_017912.3, cultured human skeletal muscle): −3.728
PID1 fc (Refseq NM_017933.3): −1.128
ZNHIT6 expression fc (Refseq NM_017953.2): 3.519
C14orf102 expression fc (Refseq NM_017970.2): 2.529
fc of WIPI1 (expression array) (Refseq NM_017983.4): −1.022
RNF31 fc (Refseq NM_017999.4): −1.08
FRMD4A fc (Refseq NM_018027.3): −1.164
FAM90A1 expression fc (Refseq NM_018088.3): 3.636
fc of RBM23 (expression array) (Refseq NM_018107.4): −1.022
PNPO fc (Refseq NM_018129.2): −1.13
SEC61A2 expression fc (Refseq NM_018144.2): 1.837
NADSYN1 fc (Refseq NM_018161.4): −1.086
TMEM140 expression fc (Refseq NM_018295.2, cultured human skeletal muscle): −2.946
BRIX1 expression fc (Refseq NM_018321.3): 1.886
DRAM1 fc (Refseq NM_018370.2): −1.087
LSG1 expression fc (Refseq NM_018385.1): 1.994
TBC1D2 fc (Refseq NM_018421.2): −1.075
RRN3 expression fc (Refseq NM_018427.3): 2.068
ZNF302 fc (Refseq NM_018443.2): −1.164
fc of GLT8D1 (expression array) (Refseq NM_018446.2): −1.021
BEX1 fc (Refseq NM_018476.3): −1.097
SLC35E3 fc (Refseq NM_018656.2): −1.132
DEFB103B expression fc (Refseq NM_018661.3): 2.499
fc of SULF2 (expression array) (Refseq NM_018837.2): −1.048
PDE7B fc (Refseq NM_018945.3): −1.116
NANS expression fc (Refseq NM_018946.2): 1.872
POLR1B expression fc (Refseq NM_019014.3): 1.904
CCNJ expression fc (Refseq NM_019084.2): 2.695
fc of HOXA5 (expression array) (Refseq NM_019102.2): −1.005
PNO1 expression fc (Refseq NM_020143.2): 2.151
KTELC1 fc (Refseq NM_020231.3): −1.073
C1orf63 expression fc (Refseq NM_020317.3): 2.19
ZMIZ1 fc (Refseq NM_020338.2): −1.165
TRIM49 expression fc (Refseq NM_020358.2): 6.551
LYRM1 fc (Refseq NM_020424.2): −1.126
SLC44A2 fc (Refseq NM_020428.2): −1.158
PCBP3 fc (Refseq NM_020528.1): −1.122

Source: patent US20140242093A1, “METHODS AND COMPOSITIONS FOR MODULATING THE INNATE IMMUNE RESPONSE AND/OR MYOGENESIS IN A MAMMALIAN SUBJECT” (FRED HUTCHINSON CANCER RESEARCH CENTER, priority 2011, published 2014)
